According to patent US5716797A, “Stable two-part reagent for the measurement of creatine kinase activity” (Wako Pure Chemical Industries, Ltd., priority 1995, dated 1998):

Assays:
[1] = Solubility of SH compounds in the enzyme solution; conditions: as CK reactivator in the enzyme solution
CK activity = conditions: Scand. J. Clin. Lab. Invest. 39, 737-742 (1979); cited from earlier work
[2] = target: T1, creatine kinase (CK) in human serum (Homo sapiens, UniProt P06732); experiment: Inhibitory effect of oxidized products of SH compounds on CK activity (HK/G6PDH UV method, NAC 26 mM as reactivator); assay type: biochemical; conditions: for CK activity value: NAC 26 mM, 37° C.
T1 construct: Five fresh human serum samples were used; from tissue; host or cells: fresh human serum
Experimental: Investigation on the inhibitory effect of oxidized products of SH compounds on CK activity
Thus, oxidized products of the SH compounds, respectively, were obtained.
NAC (26 mM) as CK reactivator, each 5 mM of SH compound oxidized product obtained above, 2.6 mM of ADP, 3.9 u/ml of HK (available from Oriental Yeast Co., Ltd.), 8.0 u/ml of G6PDH (available from Oriental Yeast Co., Ltd.), 2.6 mM of NADP, 21 mM of glucose, 10 mM of magnesium acetate, 6.5 mM of AMP, 0.013 mM of APSA, 0.1% (w/v) of sodium azide and 2 mM of EDTA-2Na were dissolved in 128 mM imidazole-acetate buffer (pH 6.7). The thus obtained solutions were adjusted to pH 6.7 with sodium hydroxide to obtain enzyme solutions.
An enzyme solution containing no SH compound oxidized product was prepared as a control standard solution.
Five fresh human serum samples were used.
To 8 μl of each sample was added 320 μl of each enzyme solution, followed by preincubation for 5 minutes. Then, 80 μl of the substrate solution was added to initiate the reaction and the change of absorbance per minute was measured for 3 minutes from 2 minutes after the addition of the substrate solution. The CK activity value was calculated from the molecular extinction coefficient of the NADPH produced.
As a measuring apparatus, an Autoanalyzer Hitachi Model 7150 was used, and the measurement was carried out at 37° C. by use of dual wavelength (λ1 =405 nm, λ2 =340 nm).
Tables 2 and 3 show the CK activity values of the 5 samples in each case and the average thereof.

T1 sequence (P06732 whole entry): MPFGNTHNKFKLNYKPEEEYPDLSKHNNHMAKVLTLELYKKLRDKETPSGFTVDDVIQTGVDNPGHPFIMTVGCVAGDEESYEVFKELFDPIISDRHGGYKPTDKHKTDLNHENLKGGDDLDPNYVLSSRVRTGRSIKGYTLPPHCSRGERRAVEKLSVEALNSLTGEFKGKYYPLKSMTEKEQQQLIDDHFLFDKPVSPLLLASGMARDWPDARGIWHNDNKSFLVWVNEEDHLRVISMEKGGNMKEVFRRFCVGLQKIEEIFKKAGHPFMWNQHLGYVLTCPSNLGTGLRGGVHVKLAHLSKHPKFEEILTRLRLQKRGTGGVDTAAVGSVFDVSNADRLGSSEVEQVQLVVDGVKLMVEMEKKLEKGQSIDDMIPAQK

With `Nc1cc(O)nc(S)n1.O` [AHMP, 4-amino-6-hydroxy-2-mercaptopyrimidine monohydrate] the “solubility” value [1] was “low solubility”.
In the case of `CC(=O)N[C@@H](CSSC[C@H](NC(C)=O)C(=O)O)C(=O)O` [NAC oxidized product], the “effect on CK activity” value (CK activity) is given as “inhibits CK activity”, the CK activity value ([2]; Sample 1 (fresh human serum), 5 mM SH compound oxidized product) is given as 124 IU/l and the CK activity value ([2]; Sample 2, 5 mM SH compound oxidized product) is given as 342 IU/l. For the same molecule, the CK activity value ([2]; Sample 3, 5 mM SH compound oxidized product) was 87 IU/l, the CK activity value ([2]; Sample 4, 5 mM SH compound oxidized product) was 272 IU/l and the CK activity value ([2]; Sample 5, 5 mM SH compound oxidized product) was 80 IU/l. For the same molecule, the “CK activity value, Average” value ([2]; average of 5 samples, 5 mM SH compound oxidized product) was 181 IU/l and the activity at 5000 µM ([2]; average with enzyme solution containing no SH compound oxidized product = 100%, 5 mM oxidized product, read-out: CK activity, relative value) was 80.1%.
